Source: patent US20130045475A1, “2-Nitrobenzyl-Modified Ribonucleotides” (ALERE SAN DIEGO, INC., priority 2004, published 2013)

How the values were obtained:
T7 RNA polymerase [1] = biological target: T1, T7 RNA polymerase (Escherichia phage T7, UniProt P00573)
Method: The reaction was started by the addition of 20 μl of 10 mM 2′-(2-Nitrobenzyl)-ATP and incubated for 2 hours at 37° C. Subsequently the reaction was split into 4 samples and subjected to deprotection: two samples were exposed to UV irradiation as described above, two untreated samples were incubated for the same period of time at ambient temperature. Deprotection was followed by addition of 1 volume of either extension mix containing 250 μM rNTPs in transcription buffer, or addition of transcription buffer only. Samples were then incubated for another 1 hour at 37° C.
Processing, separation and detection of products was done as described above.

T7 RNA polymerase [2] = biological target: T1, T7 RNA polymerase; assay: Primer extension reactions with RNA/DNA scaffold and T7 RNA polymerase; type: biochemical; parameters: purchased Fermentas; settings: for extension of the RNA primer of the scaffold: sole nucleotide offered, template encodes rATP then rGTP, FIG. 2B
Method: The nucleic acid scaffolds were formed by incubating 1 nmol RNA-1 (5′-biotin-AACUGCGGCGAU-3′ (SEQ ID NO:1)) and 1 nmol DNA-1 (5′-[…]-3′ (SEQ ID NO:2)) in 100 μl transcription buffer (200 mM Tris-HCl (pH 7.9 at 25° C.), 30 mM MgCl2, 50 mM DTT, 50 mM NaCl, 10 mM spermidine) for 10 minutes at 70° C. Annealing occurred by slowly lowering the temperature to 25° C. The concentration of hybrid was assumed to be 10 μM.
For the primer extension reactions 2 pmoles of scaffold were mixed with 10 units of T7 RNA polymerase (Fermentas) in 9 μl transcription buffer to allow the transcription complex to form. Reactions were started by the addition of 1 μl of 1 mM nucleotide solution and incubated for 20 minutes at 37° C. Reactions were stopped by addition of 2 μl 500 mM EDTA and cooled on ice. UV irradiation was done for 10 minutes on a UV lamp.
Samples were precipitated, dissolved in formamide loading buffer and resolved on a denaturing 16% polyacrylamide gel (8M urea). Gels were electroblotted onto nylon-membrane (Osmonics, USA) in blotting buffer (0.5×TBE). Blots were incubated in blocking buffer (1×TBSTw/1% blocking reagent (Roche)) for 1 hour at room temperature to avoid non-specific noise, incubated with 0.5 μg/ml streptavidin-HRP (Sigma) in blocking buffer for 1 hour and washed extensively in Tris buffered saline containing 0.1% Tween-20. Detection was performed using a chemiluminescent substrate according to the instructions of the manufacturer (Pierce).

T7 RNA polymerase [3] = biological target: T1, T7 RNA polymerase; settings: elongation mode complexes on duplex DNA substrates

T1 sequence (P00573 whole entry): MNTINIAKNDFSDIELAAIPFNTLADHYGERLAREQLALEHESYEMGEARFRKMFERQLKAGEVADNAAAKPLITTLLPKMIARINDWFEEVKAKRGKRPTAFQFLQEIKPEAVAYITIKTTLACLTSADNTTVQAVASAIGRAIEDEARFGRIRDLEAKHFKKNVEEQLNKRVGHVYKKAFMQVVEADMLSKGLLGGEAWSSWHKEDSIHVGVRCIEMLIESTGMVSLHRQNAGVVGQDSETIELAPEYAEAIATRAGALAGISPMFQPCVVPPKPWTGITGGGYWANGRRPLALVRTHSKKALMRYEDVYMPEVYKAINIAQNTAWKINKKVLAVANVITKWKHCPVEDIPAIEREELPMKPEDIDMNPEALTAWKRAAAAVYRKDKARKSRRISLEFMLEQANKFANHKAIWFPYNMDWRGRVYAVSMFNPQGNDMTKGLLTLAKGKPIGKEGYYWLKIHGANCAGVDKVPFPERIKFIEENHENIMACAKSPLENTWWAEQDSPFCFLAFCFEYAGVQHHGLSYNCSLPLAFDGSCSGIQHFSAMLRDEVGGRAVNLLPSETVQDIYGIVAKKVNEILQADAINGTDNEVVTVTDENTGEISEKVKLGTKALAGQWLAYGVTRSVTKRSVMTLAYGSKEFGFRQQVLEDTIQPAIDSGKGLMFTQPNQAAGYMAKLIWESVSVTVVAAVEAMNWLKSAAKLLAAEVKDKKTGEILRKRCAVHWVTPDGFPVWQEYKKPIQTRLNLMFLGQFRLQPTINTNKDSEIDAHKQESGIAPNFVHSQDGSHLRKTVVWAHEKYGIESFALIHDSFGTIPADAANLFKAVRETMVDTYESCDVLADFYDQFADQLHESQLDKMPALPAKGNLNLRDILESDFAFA

Compound	reversal of termination on deprotection (T7 RNA polymerase [1]; UV irradiation 10 minutes, then 250 μM rNTPs extension mix, 1 hour at 37° C., FIG. 3 lane 4)	termination of transcription (T7 RNA polymerase [1]; scaffold + T7 RNAP + 2′-(2-Nitrobenzyl)-ATP 2 hours at 37° C., no UV, then rNTPs, FIG. 3 lane 3)	incorporation of the nucleotide analog into a growing RNA chain (T7 RNA polymerase [2]; RNA/DNA scaffold, 10 units T7 RNA polymerase, 1 μl of 1 mM nucleotide solution, 20 minutes at 37° C., gel mobility before and after UV)	incorporation into a growing RNA chain (T7 RNA polymerase [3])	extension of the RNA primer of the scaffold (T7 RNA polymerase [2])
Nc1ncnc2c1ncn2[C@@H]1O[C@H](COP(=O)(O)OP(=O)(O)OP(=O)(O)O)[C@@H](O)[C@H]1OCc1ccccc1[N+](=O)[O-] [2′-(2-Nitrobenzyl)-ATP]	Elongation of the transcript can resume upon removal of the protecting 2-Nitrobenzyl group by UV irradiation	acts as a bona fide terminator of transcription	incorporation into the nascent RNA chain by T7 RNAP	we have not observed this activity	
Nc1ncnc2c1ncn2[C@@H]1O[C@H](COP(=O)(O)OP(=O)(O)OP(=O)(O)O)[C@@H](O)[C@H]1O [rATP, adenosine 5′-triphosphate]					extended by one or two bases
Nc1ccn([C@@H]2O[C@H](COP(=O)(O)OP(=O)(O)OP(=O)(O)O)[C@@H](O)[C@H]2O)c(=O)n1 [rCTP, cytidine 5′-triphosphate]					extension is limited to one base only
